Data on 12 compounds can be found in US10053434B2, “Histone deacetylase inhibitors and compositions and methods of use thereof” (CHDI Foundation, Inc., priority 2015, dated 2018).

Where a name gives a salt, the structure may show the parent alone.

The subject of assay [1] is Cellular Class IIa HDAC activity. The assay can be described thus: Inhibition of cellular Class IIa HDAC activity; Cell (Lys-TFA) substrate, Jurkat E6-1 cells. Conditions: Boc-Lys(TFA)-AMC substrate. It is filed as cell-based. The text has this: Example 29: Analysis of Inhibition of Cellular Class IIa HDAC Activity with Class IIa Histone Deacetylase (HDAC) Inhibitors; Cell (Lys-TFA) Substrate
(§1) The potency of Class IIa Histone Deacetylase (HDAC) inhibitors was quantified by measuring the cellular histone deacetylase enzymatic activity using the fluorogenic substrate, Boc-Lys(TFA)-AMC. After penetration in Jurkat E6-1 cells, the substrate was deacetylated to Boc-Lys-AMC. After cell lysis and cleavage by trypsin, the fluorophore AMC was released from the deacetylated substrate only. The fluorescence of the sample was directly related to the histone deacetylase activity in the sample.
Jurkat E6.1 Cell Culture and Plating.
(§2) Jurkat E6.1 cells were cultured according to standard cell culture protocols in Jurkat E6.1 Growth Media (RPMI without phenol red, 10% FBS, 10 mM HEPES, and 1 mM Sodium Pyruvate). Jurkat E6.1 cells were counted using a Coulter Counter and resuspended in Jurkat E6.1 growth media at a concentration of 75,000 cells/35 μL. 35 μL or 75,000 cells was seeded into Greiner microtitre assay plates. The plates were then incubated at 37° C. and 5% CO2 while other assay components were being prepared.
(§3) Serially Dilute HDAC Inhibitor Compounds.
(§4) Serial dilutions of the HDAC inhibitors and control reference compound (1-(5-(3-((4-(1,3,4-oxadiazol-2-yl)phenoxy)methyl)-1,2,4-oxadiazol-5-yl)thiophen-2-yl)-2,2,2-trifluoroethanone) were made by first resuspending the lyophilized compound to a final concentration of 10 mM in 100% DMSO. Stocks of 70 μL aliquots of the 10 mM compound in DMSO were prepared and stored at −20° C. From one stock aliquot of each tested compound and the reference compound, a 16-point serial dilution was prepared according to Table 1 using a 125 μL 16-channel Matrix multi-channel pipette.
(§5) 2 μL (200×) of each diluted solution and each control (full activity: 100% DMSO alone or full inhibition 1 mM) was stamped into V-bottom polypropylene 384-well compound plates using either the Bravo, Janus, or 12.5 μL 16-channel Matrix multi-channel pipette. Each well with the 200× compound solution was diluted 1:20 by the addition of 38 μL Jurkat assay buffer+DMSO (9.5% DMSO, RPMI without phenol red, 0.09% FBS, 9 mM Hepes, and 0.9 mM Sodium Pyruvate equilibrated to r.t.)
Prepare 5× (500 μM) Boc-Lys(TFA)-AMC Substrate.
(§6) 5× (500 μM) substrate was prepared just prior to the addition to the assay. The 5× substrate was prepared by diluting a 100 mM Boc-Lys(TFA)-AMC in DMSO solution 1:200 by adding it drop-wise to Jurkat assay medium (RPMI without phenol red, 0.1% FBS, 10 mM Hepes, and 1 mM Sodium Pyruvate equilibrated to 37° C.) while vortexing at slow speed to prevent precipitation.
(§7) 10 mL of 3× lysis buffer was prepared with 8.8 mL of 3× stock lysis buffer (50 mM Tris-HCl, pH 8.0, 137 mM NaCl, 2.7 mM KCl, 1 mM MgCl2, 1% Nonidet P40 Substitute equilibrated to r.t.) and 1.2 mL of 3 mg/mL Trypsin equilibrated to r.t.
(§8) 5 μL of each solution of 1:20 diluted compound from above was transferred to the Greiner microtitre assay plates with 75,000 cells/well using the Bravo. Cells were then incubated for 2 hours at 37° C. and 5% CO2. The assay was then started by adding 10 μL of 5× (500 μM) substrate to the assay plate using either the Bravo or 16-channel Matrix multi-channel pipette. The cells were then incubated for 3 hours at 37° C. and 5% CO2. Next, 25 μL of 3× lysis buffer was added to each well using either the 125 μL 16 channel pipette or the Bravo. The assay plate was then incubated overnight (15-16 hours) at 37° C. and 5% CO2. The following day, the plates were shaken on an orbital shaker for 1 minute at 900 rpm. Finally the top read fluorescence (Excitation: 355 nm, Emission: 460 nm) was measured using PerkinElmer EnVision.

Assay [2] relates to Cellular Class I HDAC activity. The assay can be described thus: Inhibition of cellular Class I HDAC activity; Cell (Lys-Ac) substrate, Jurkat E6-1 cells. It is filed as cell-based. The conditions noted are these: Boc-Lys(Ac)-AMC substrate.
Description: as §1, §2, §4, §5, §6, §7, §8
Example 30: Analysis of Inhibition of Cellular Class I HDAC Activity with Class IIa Histone Deacetylase (HDAC) Inhibitors; Cell (Lys-Ac) Substrate
The Class I HDAC activity of Class IIa Histone Deacetylase (HDAC) inhibitors was quantified by measuring the cellular histone deacetylase enzymatic activity using the fluorogenic substrate, Boc-Lys(Ac)-AMC. This was performed according to the procedure in Example 29, using Boc-Lys(Ac)-AMC substrate in place of Boc-Lys(TFA)-AMC.

Assay [3] has as its target human catalytic domain HDAC4 protein (amino acids 648-1032) (Homo sapiens (Human), UniProt P56524). In words: HDAC4 catalytic domain enzymatic activity, fluorogenic substrate Boc-Lys(TFA)-AMC. Conditions: read-out: HDAC4 Biochemical IC50.
Description: Example 25: Analysis of Inhibition of HDAC4 with Class IIa Histone Deacetylase (HDAC) Inhibitors
The potency of Class IIa Histone Deacetylase (HDAC) inhibitors was quantified by measuring the Histone Deacetylase 4 (HDAC4) catalytic domain enzymatic activity using the fluorogenic substrate, Boc-Lys(TFA)-AMC. The substrate was deacetylated to Boc-Lys-AMC by HDAC4. […] The fluorescence of the sample was directly related to the histone deacetylase activity in the sample.
as §3
as §4, with “dimethyl sulfoxide (DMSO).” for “DMSO.”, “60” for “70”, “pipette (Matrix Technologies Ltd).” for “pipette.”
2 μL (200×) of each diluted solution and each control (full activity: 100% DMSO alone or full inhibition 1 mM) was stamped into V-bottomed polypropylene 384-well compound plates using either the Bravo (384-well head from Agilent) or 12.5 μL 16-channel Matrix multi-channel pipette (Matrix Technologies Ltd). Each well with the 200× compound solution was diluted 1:20 by the addition of 38 μL assay buffer+DMSO (10.5% DMSO, 45 mM Tris-HCl, 123 mM NaCl, 2.4 mM KCl, and 0.9 mM MgCl2 at pH 8.0 and equilibrated to r.t.).
Prepare HDAC4 Catalytic Domain Enzyme (0.2 μg/mL).
The HDAC4 catalytic domain enzyme was human catalytic domain HDAC4 protein (amino acids 648-1032) with a C-terminal 6× histidine tag, produced by BioFocus. A working solution of enzyme was prepared from a […] stock aliquot of HDAC4 catalytic domain (thawed on ice) diluted to 0.2 μg/mL with assay buffer (50 mM Tris-HCl, 137 mM NaCl, 2.7 mM KCl, and 1 mM MgCl2 at pH 8 and equilibrated to r.t.) just prior to the addition of the enzyme to the assay.
Prepare 5× (50 μM) Boc-Lys(TFA)-AMC Substrate.
5× (50 μM) substrate was prepared just prior to the addition to the assay. A 1 mM substrate stock was made by diluting a 100 mM Boc-Lys(TFA)-AMC in DMSO solution 1:100 by adding it drop-wise to assay buffer (equilibrated to r.t.) while vortexing at slow speed to prevent precipitation. The 5× substrate was prepared by diluting the 1 mM substrate solution 1:20 by adding it drop-wise to assay buffer (equilibrated to r.t.) while vortexing at slow speed to prevent precipitation.
Prepare 3× (30 μM) Developer/Stop Solution.
3× (30 μM) Developer/Stop Solution was prepared just prior to addition to the plate by diluting a stock solution of 10 mM reference compound 1:333 in 25 mg/mL trypsin (PAA Laboratories Ltd.) equilibrated to r.t.
5 μL of each solution of 1:20 diluted compound from above was transferred to a clear bottomed, black, 384-well assay plate using the Bravo or the Janus (384-well MDT head from Perkin Elmer). Using a 16-channel Matrix multi-channel pipette, 35 μL of the working solution of HDAC4 catalytic domain enzyme (0.2 μg/mL in assay buffer) was transferred to the assay plate. The assay was then started by adding 10 μL of 5× (50 μM) substrate to the assay plates using either the Bravo, Janus or 16-channel Matrix multi-channel pipette. The assay plate was then shaken for two minutes on an orbital shaker at 900 rpm (rotations per minute). Next the plate was incubated for 15 minutes at 37° C. The reaction was stopped by adding 25 μL of 3× (30 μM) developer/stop solution to the assay plates using either the Bravo, Janus or a 16-channel Matrix multi-channel pipette. Assay plates were then shaken for 5 minutes on an orbital shaker at 1200 rpm. Next, the assay plates were incubated at 37° C. for 1 hour in a tissue culture incubator. […]

Chain of human catalytic domain HDAC4 protein (amino acids 648-1032) (P56524 648-1032): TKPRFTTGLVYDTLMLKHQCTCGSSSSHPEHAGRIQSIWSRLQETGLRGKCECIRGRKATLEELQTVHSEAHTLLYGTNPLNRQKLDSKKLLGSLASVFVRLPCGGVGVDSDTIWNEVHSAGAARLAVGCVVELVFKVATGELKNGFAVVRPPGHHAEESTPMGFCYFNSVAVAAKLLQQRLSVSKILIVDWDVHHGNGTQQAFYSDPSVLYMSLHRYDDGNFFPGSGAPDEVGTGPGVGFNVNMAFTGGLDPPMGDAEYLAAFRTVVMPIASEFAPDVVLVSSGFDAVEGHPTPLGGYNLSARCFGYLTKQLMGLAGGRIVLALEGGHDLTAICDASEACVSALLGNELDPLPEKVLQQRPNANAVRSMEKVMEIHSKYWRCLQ

One may read the IC50 as the point on the concentration scale where inhibition reaches its midpoint. Take `C[C@H](CN1CCCC(OC(F)F)C1)NC(=O)c1ccc(-c2noc(C(F)(F)F)n2)cc1` (single isomer, unassigned) [Example 9]: the half-maximal inhibitory concentration (IC50) in assay [1] was 57 nM; in assay [2], 3700 nM; in assay [3] it was 21 nM.
As for `C[C@H](CN1CCCC(OC(F)F)C1)NC(=O)c1ccc(-c2noc(C(F)(F)F)n2)cc1` (single isomer, unassigned) [Example 10], the half-inhibitory concentration (IC50) in assay [1] was found to be 7 nM; in assay [2] it was 1500 nM; in assay [3], 3 nM.
For `C[C@H](CN1CC2CCCC21)NC(=O)c1ccc(-c2noc(C(F)(F)F)n2)cc1` (single isomer, unassigned) [Example 20], in that order: 150 nM, 7800 nM and 22 nM.
Regarding `C[C@H](CN1CC2CCCC21)NC(=O)c1ccc(-c2noc(C(F)(F)F)n2)cc1` (single isomer, unassigned) [Example 21], the half-inhibitory concentration (IC50) in assay [1] came to 16 nM; in assay [2], 3100 nM; in assay [3], 4 nM.
For `Cc1cc(C(=O)N[C@H](C)CN2CCC[C@@H]2C)ccc1-c1noc(C(F)(F)F)n1` [Example 1, (2S)-2-Methyl-1-((R)-2-(3-methyl-4-(5-(trifluoromethyl)-1,2,4-oxadiazol-3-yl)benzamido)propyl)pyrrolidin-1-ium formate], the 50% inhibitory concentration (IC50) in assay [1] is 1600 nM; in assay [2], greater than 50000 nM; in assay [3], 100 nM.
For `O=C(NCCN1CC2CCC(C2)C1)c1ccc(-c2noc(C(F)(F)F)n2)cc1` [Example 2, N-(2-(3-Azabicyclo[3.2.1]octan-3-yl)ethyl)-4-(5-(trifluoromethyl)-1,2,4-oxadiazol-3-yl)benzamide], in that order: 330 nM, 4900 nM and 140 nM.
For `C[C@H](CN1Cc2ccccc2C1)NC(=O)c1ccc(-c2noc(C(F)(F)F)n2)cc1` [Example 3, (R)—N-(1-(Isoindolin-2-yl)propan-2-yl)-4-(5-(trifluoromethyl)-1,2,4-oxadiazol-3-yl)benzamide], in that order: 140 nM, 4900 nM and 39 nM.
For `C[C@H](CN1CC2CC2C1)NC(=O)c1ccc(-c2noc(C(F)(F)F)n2)cc1` (stereo partly drawn) [Example 4, N-((2R)-1-(3-Azabicyclo[3.1.0]hexan-3-yl)propan-2-yl)-4-(5-(trifluoromethyl)-1,2,4-oxadiazol-3-yl)benzamide], in that order: 51 nM, 6900 nM and 8 nM.
In the case of `O=C(N[C@H](CN1CCCC1)C1CC1)c1ccc(-c2noc(C(F)(F)F)n2)cc1` [Example 5, (S)—N-(1-Cyclopropyl-2-(pyrrolidin-1-yl)ethyl)-4-(5-(trifluoromethyl)-1,2,4-oxadiazol-3-yl)benzamide], the half-inhibitory concentration (IC50) in assay [1] was 710 nM; in assay [2], 25700 nM; in assay [3] it was 48 nM.
For `O=C(N[C@@H](CN1CCCC1)C1CC1)c1ccc(-c2noc(C(F)(F)F)n2)cc1` [Example 6, (R)—N-(1-Cyclopropyl-2-(pyrrolidin-1-yl)ethyl)-4-(5-(trifluoromethyl)-1,2,4-oxadiazol-3-yl)benzamide], in that order: 750 nM, greater than 50000 nM and 77 nM.
Taken in the same sequence, the figures for `C[C@H](CN1CCc2ccccc2C1)NC(=O)c1ccc(-c2noc(C(F)(F)F)n2)cc1` [Example 7, (R)—N-(1-(3,4-Dihydroisoquinolin-2(1H)-yl)propan-2-yl)-4-(5-(trifluoromethyl)-1,2,4-oxadiazol-3-yl)benzamide] were 18 nM, 2400 nM and 9 nM.
For `C[C@H](CN1CC(c2ccccc2)C1)NC(=O)c1ccc(-c2noc(C(F)(F)F)n2)cc1` [Example 8, (R)—N-(1-(3-Phenylazetidin-1-yl)propan-2-yl)-4-(5-(trifluoromethyl)-1,2,4-oxadiazol-3-yl)benzamide], in that order: 39 nM, 710 nM and 14 nM.
